This is an account of results in the NIST ThermoML archive (doi:10.1007/s10765-009-0593-3).

± gives the expanded uncertainty stated by the source.

For this data set the following is noted: 101.33 kPa, Liquid; for speed of sound: Pulse-echo method.

Turning to `CCCCN` [1-butanamine], the mass density (in general, the mass of a sample divided by its volume) is on record as 742.865 ± 0.56 kg/m3 (288.15 K); 738.096 ± 0.57 kg/m3 (293.15 K); 733.301 ± 0.58 kg/m3 (298.15 K); 728.477 ± 0.58 kg/m3 (303.15 K); 723.625 ± 0.59 kg/m3 (308.15 K). Moreover, the speed of sound (usually how fast a sound wave travels through the sample) runs as follows: (288.15 K) 1296.1 ± 0.83 m/s; (293.15 K) 1273.6 ± 0.82 m/s; (298.15 K) 1250 ± 0.82 m/s; (303.15 K) 1228.9 ± 0.81 m/s; (308.15 K) 1205.7 ± 0.8 m/s.

Take `CCCCN(CCCC)CCCC` [tributylamine]: the mass density is on record as 781.336 ± 0.5 kg/m3 (288.15 K); 777.632 ± 0.51 kg/m3 (293.15 K); 773.913 ± 0.51 kg/m3 (298.15 K); 770.183 ± 0.52 kg/m3 (303.15 K); 766.44 ± 0.53 kg/m3 (308.15 K). For the same compound, the speed of sound by setting is: (288.15 K) 1285 ± 0.83 m/s; (293.15 K) 1266.4 ± 0.82 m/s; (298.15 K) 1247.6 ± 0.81 m/s; (303.15 K) 1229 ± 0.81 m/s; (308.15 K) 1210.4 ± 0.8 m/s.

Turning to `CCCOCC(C)OCC(C)O` (stereo not given) [1-(1-methyl-2-propoxyethoxy)-2-propanol], the mass density reads like this: (288.15 K) 924.348 ± 0.29 kg/m3; (293.15 K) 919.954 ± 0.29 kg/m3; (298.15 K) 915.522 ± 0.3 kg/m3; (303.15 K) 911.078 ± 0.31 kg/m3; (308.15 K) 906.642 ± 0.31 kg/m3. Moreover, the speed of sound is, setting by setting: (288.15 K) 1306.3 ± 0.83 m/s; (293.15 K) 1287.9 ± 0.83 m/s; (298.15 K) 1269.9 ± 0.82 m/s; (303.15 K) 1251.7 ± 0.82 m/s; (308.15 K) 1234.1 ± 0.81 m/s.

In the case of `CCCCNCCCC` [dibutylamine], the mass density is on record as 766.115 ± 0.53 kg/m3 (288.15 K); 762.022 ± 0.53 kg/m3 (293.15 K); 757.784 ± 0.54 kg/m3 (298.15 K); 752.284 ± 0.55 kg/m3 (303.15 K); 748.17 ± 0.55 kg/m3 (308.15 K). In addition, the speed of sound stood at 1289.2 ± 0.83 m/s (288.15 K); 1269.5 ± 0.82 m/s (293.15 K); 1246.7 ± 0.81 m/s (298.15 K); 1226.7 ± 0.81 m/s (303.15 K); 1207 ± 0.8 m/s (308.15 K).
